Measurements from the NIST ThermoML archive (doi:10.1016/j.jct.2019.02.011).

Test: xn = mol fraction of the nth substance listed
Settings: Liquid, Vibrating tube method

COC(=O)OC [dimethyl carbonate] + CO
mass density [kg/m3]
Settings	100 kPa	5000 kPa	10000 kPa	15000 kPa	20000 kPa	25000 kPa	30000 kPa	35000 kPa	40000 kPa
298.15 K, x1 = 0.0253	–	–	–	–	–	822.44	826.09	829.61	832.77
298.15 K, x1 = 0.0503	–	–	–	–	–	836.02	839.68	843.21	846.39
298.15 K, x1 = 0.0745	–	–	–	–	–	848.53	852.21	855.74	858.95
298.15 K, x1 = 0.101	–	–	–	–	–	861.5	865.23	868.78	872.01
298.15 K, x1 = 0.1502	–	–	–	–	–	883.85	887.6	891.17	894.43
298.15 K, x1 = 0.2059	–	–	–	–	–	906.93	910.69	914.23	917.53
298.15 K, x1 = 0.25	–	–	–	–	–	923.6	927.38	930.92	934.25
298.15 K, x1 = 0.3004	–	–	–	–	–	941.13	944.97	948.53	951.89
298.15 K, x1 = 0.3426	–	–	–	–	–	954.69	958.54	962.11	965.49
298.15 K, x1 = 0.3984	–	–	–	–	–	971.23	975.08	978.67	982.08
298.15 K, x1 = 0.4514	–	–	–	–	–	985.66	989.52	993.12	996.55
298.15 K, x1 = 0.5054	–	–	–	–	–	999.17	1003.04	1006.64	1010.1
298.15 K, x1 = 0.5509	–	–	–	–	1005.74	1009.72	1013.59	1017.21	1020.68
298.15 K, x1 = 0.6002	–	–	–	–	1016.28	1020.27	1024.16	1027.78	1031.27
298.15 K, x1 = 0.6469	–	–	–	–	1025.6	1029.6	1033.49	1037.12	1040.63
298.15 K, x1 = 0.6993	–	–	–	–	1035.37	1039.38	1043.27	1046.86	1050.38
298.15 K, x1 = 0.7496	–	–	–	–	1044.11	1048.12	1052.02	1055.62	1059.15
298.15 K, x1 = 0.799	–	–	–	–	1052.15	1056.12	1060.03	1063.63	1067.18
298.15 K, x1 = 0.837	–	–	–	–	1058.02	1061.99	1065.9	1069.51	1073.07
298.15 K, x1 = 0.9093	–	–	–	–	1068.61	1072.59	1076.46	1080.07	1083.65
298.15 K, x1 = 0.9239	–	–	–	–	1070.65	1074.63	1078.5	1082.11	1085.7
298.15 K, x1 = 0.9575	–	–	–	–	1075.22	1079.21	1083.09	1086.7	1090.29
298.15 K, x1 = 0.9861	–	–	–	–	1079.06	1083.05	1086.92	1090.54	1094.14
298.15 K, x1 = 1	–	–	–	–	1080.9	1084.89	1088.82	1092.44	1096.04
303.15 K, x1 = 0.0253	796.3	801.03	805.57	810.1	814.43	818.36	822.05	–	–
303.15 K, x1 = 0.0503	809.73	814.5	819.05	823.59	827.93	831.86	835.56	–	–
303.15 K, x1 = 0.0745	822.09	826.87	831.44	835.97	840.32	844.26	848.02	–	–
303.15 K, x1 = 0.101	834.96	839.75	844.32	848.86	853.22	857.21	860.97	–	–
303.15 K, x1 = 0.1502	857.02	861.81	866.4	870.99	875.37	879.38	883.14	–	–
303.15 K, x1 = 0.2059	879.85	884.65	889.26	893.85	898.26	902.32	906.14	–	–
303.15 K, x1 = 0.25	896.36	901.21	905.83	910.43	914.79	918.87	922.69	–	–
303.15 K, x1 = 0.3004	913.71	918.57	923.21	927.81	932.19	936.27	940.09	–	–
303.15 K, x1 = 0.3426	927.12	931.98	936.63	941.23	945.62	949.71	953.54	–	–
303.15 K, x1 = 0.3984	943.53	948.4	953.06	957.62	962.02	966.12	969.95	–	–
303.15 K, x1 = 0.4514	957.9	962.78	967.4	971.96	976.32	980.43	984.26	–	–
303.15 K, x1 = 0.5054	971.35	976.23	980.81	985.37	989.75	993.91	997.75	–	–
303.15 K, x1 = 0.5509	981.85	986.74	991.33	995.89	1000.23	1004.39	1008.28	–	–
303.15 K, x1 = 0.6002	992.37	997.25	1001.85	1006.41	1010.76	1014.93	1018.82	–	–
303.15 K, x1 = 0.6469	1001.6	1006.49	1011.1	1015.61	1019.97	1024.14	1028.04	–	–
303.15 K, x1 = 0.6993	1011.29	1016.13	1020.75	1025.26	1029.62	1033.8	1037.7	–	–
303.15 K, x1 = 0.7496	1019.99	1024.84	1029.41	1033.93	1038.25	1042.43	1046.33	–	–
303.15 K, x1 = 0.799	1028.01	1032.86	1037.44	1041.96	1046.28	1050.47	1054.37	–	–
303.15 K, x1 = 0.837	1033.85	1038.71	1043.24	1047.76	1052.09	1056.23	–	–	–
303.15 K, x1 = 0.9093	1044.36	1049.21	1053.76	1058.22	1062.51	1066.71	–	–	–
303.15 K, x1 = 0.9239	1046.39	1051.25	1055.79	1060.26	1064.55	1068.75	–	–	–
303.15 K, x1 = 0.9575	1050.95	1055.81	1060.36	1064.83	1069.12	1073.32	–	–	–
303.15 K, x1 = 0.9861	1054.77	1059.63	1064.18	1068.65	1072.95	1077.15	–	–	–
303.15 K, x1 = 1	1056.61	1061.47	1066.02	1070.49	1074.79	1078.99	–	–	–
